According to ChEMBL document CHEMBL1177848, “Synthesis of novel 6,6a,7,8-tetrahydro-5H-naphtho[1,2-e]pyrimido[4,5-b][1,4]diazepines under microwave irradiation as potential anti-tumor agents” (2010):
Calls of active or inactive are those of the source.

Key:
Assay type in all cases: functional, cell-based
[1] = system: Malme-3M; experiment: Growth inhibition of human MALME-3M cells at 1 uM after 48 hrs by sulforhodamine B assay
[2] = system: PC-3; experiment: Growth inhibition of human PC3 cells at 1 uM after 48 hrs by sulforhodamine B assay
[3] = system: NCI-H522; experiment: Growth inhibition of human NCI-H522 cells at 1 uM after 48 hrs by sulforhodamine B assay
[4] = system: HT-29; experiment: Growth inhibition of human HT-29 cells at 1 uM after 48 hrs by sulforhodamine B assay
[5] = system: NCI-H460; experiment: Growth inhibition of human NCI-H460 cells at 1 uM after 48 hrs by sulforhodamine B assay
[6] = system: HL-60; experiment: Growth inhibition of human HL-60(TB) cells at 1 uM after 48 hrs by sulforhodamine B assay
[7] = system: T47D; experiment: Growth inhibition of human T47D cells at 1 uM after 48 hrs by sulforhodamine B assay
[8] = system: BT-549; experiment: Growth inhibition of human BT549 cells at 1 uM after 48 hrs by sulforhodamine B assay
[9] = system: HOP-62; experiment: Growth inhibition of human HOP62 cells at 1 uM after 48 hrs by sulforhodamine B assay
[10] = system: COLO 205; experiment: Growth inhibition of human COLO205 cells at 1 uM after 48 hrs by sulforhodamine B assay
[11] = system: SK-MEL-2; experiment: Growth inhibition of human SK-MEL-2 cells at 1 uM after 48 hrs by sulforhodamine B assay
[12] = system: MDA-MB-435; experiment: Growth inhibition of human MDA-MB-435 cells at 1 uM after 48 hrs by sulforhodamine B assay
[13] = system: HCT-116; experiment: Growth inhibition of human HCT116 cells at 1 uM after 48 hrs by sulforhodamine B assay
[14] = system: NCI-H23; experiment: Growth inhibition of human NCI-H23 cells at 1 uM after 48 hrs by sulforhodamine B assay
[15] = system: IGROV-1; experiment: Growth inhibition of human IGROV1 cells at 1 uM after 48 hrs by sulforhodamine B assay
[16] = system: KM12; experiment: Growth inhibition of human KM12 cells at 1 uM after 48 hrs by sulforhodamine B assay
[17] = system: Hs-578T; experiment: Growth inhibition of human Hs 578T cells at 1 uM after 48 hrs by sulforhodamine B assay
[18] = system: HCT-15; experiment: Growth inhibition of human HCT15 cells at 1 uM after 48 hrs by sulforhodamine B assay
[19] = system: 786-0; experiment: Growth inhibition of human 786-0 cells at 1 uM after 48 hrs by sulforhodamine B assay
[20] = system: MDA-MB-231; experiment: Growth inhibition of human MDA-MB-231 cells at 1 uM after 48 hrs by sulforhodamine B assay
[21] = system: UACC-257; experiment: Growth inhibition of human UACC257 cells at 1 uM after 48 hrs by sulforhodamine B assay
[22] = system: HOP-92; experiment: Growth inhibition of human HOP92 cells at 1 uM after 48 hrs by sulforhodamine B assay
[23] = system: SW-620; experiment: Growth inhibition of human SW620 cells at 1 uM after 48 hrs by sulforhodamine B assay
[24] = system: MDA-MB-468; experiment: Growth inhibition of human MDA-MB-468 cells at 1 uM after 48 hrs by sulforhodamine B assay
[25] = system: SK-MEL-5; experiment: Growth inhibition of human SK-MEL-5 cells at 1 uM after 48 hrs by sulforhodamine B assay
[26] = system: OVCAR-8; experiment: Growth inhibition of human OVCAR8 cells at 1 uM after 48 hrs by sulforhodamine B assay
[27] = system: NCI-H322M; experiment: Growth inhibition of human […] cells at 1 uM after 48 hrs by sulforhodamine B assay
[28] = system: SR; experiment: Growth inhibition of human SR cells at 1 uM after 48 hrs by sulforhodamine B assay
[29] = system: RXF 393; experiment: Growth inhibition of human RXF393 cells at 1 uM after 48 hrs by sulforhodamine B assay
[30] = system: M14; experiment: Growth inhibition of human M14 cells at 1 uM after 48 hrs by sulforhodamine B assay
[31] = system: UO-31; experiment: Growth inhibition of human UO31 cells at 1 uM after 48 hrs by sulforhodamine B assay
[32] = system: DU-145; experiment: Growth inhibition of human DU145 cells at 1 uM after 48 hrs by sulforhodamine B assay
[33] = system: SF-268; experiment: Growth inhibition of human SF268 cells at 1 uM after 48 hrs by sulforhodamine B assay
[34] = system: OVCAR-3; experiment: Growth inhibition of human OVCAR-3 cells at 1 uM after 48 hrs by sulforhodamine B assay
[35] = system: UACC-62; experiment: Growth inhibition of human UACC62 cells at 1 uM after 48 hrs by sulforhodamine B assay
[36] = system: K562; experiment: Growth inhibition of human K562 cells at 1 uM after 48 hrs by sulforhodamine B assay
[37] = system: MOLT-4; experiment: Growth inhibition of human MOLT4 cells at 1 uM after 48 hrs by sulforhodamine B assay
[38] = system: HCC 2998; experiment: Growth inhibition of human HCC2998 cells at 1 uM after 48 hrs by sulforhodamine B assay
[39] = system: SF-539; experiment: Growth inhibition of human SF539 cells at 1 uM after 48 hrs by sulforhodamine B assay
[40] = system: MCF7; experiment: Growth inhibition of human MCF7 cells at 1 uM after 48 hrs by sulforhodamine B assay
[41] = system: LOX IMVI; experiment: Growth inhibition of human LOXIMVI cells at 1 uM after 48 hrs by sulforhodamine B assay
[42] = system: EKVX; experiment: Growth inhibition of human EKVX cells at 1 uM after 48 hrs by sulforhodamine B assay
[43] = system: SN12C; experiment: Growth inhibition of human SN12C cells at 1 uM after 48 hrs by sulforhodamine B assay
[44] = system: SF530; experiment: Growth inhibition of human SF530 cells at 1 uM after 48 hrs by sulforhodamine B assay
[45] = system: OVCAR-4; experiment: Growth inhibition of human OVCAR4 cells at 1 uM after 48 hrs by sulforhodamine B assay
[46] = system: A549; experiment: Growth inhibition of human A549 cells at 1 uM after 48 hrs by sulforhodamine B assay
[47] = system: RPMI-8226; experiment: Growth inhibition of human RPMI8226 cells at 1 uM after 48 hrs by sulforhodamine B assay
[48] = system: NCI/ADR-RES; experiment: Growth inhibition of human NCI/ADR-RES cells at 1 uM after 48 hrs by sulforhodamine B assay
[49] = system: ACHN; experiment: Growth inhibition of human ACHN cells at 1 uM after 48 hrs by sulforhodamine B assay
[50] = system: SNB-75; experiment: Growth inhibition of human SNB75 cells at 1 uM after 48 hrs by sulforhodamine B assay
[51] = system: CAKI-1; experiment: Growth inhibition of human Caki1 cells at 1 uM after 48 hrs by sulforhodamine B assay
[52] = system: NCI-H226; experiment: Growth inhibition of human NCI-H226 cells at 1 uM after 48 hrs by sulforhodamine B assay
[53] = system: A498; experiment: Growth inhibition of human A498 cells at 1 uM after 48 hrs by sulforhodamine B assay
[54] = system: SK-MEL-28; experiment: Growth inhibition of human SK-MEL-28 cells at 1 uM after 48 hrs by sulforhodamine B assay
[55] = system: TK-10; experiment: Growth inhibition of human TK10 cells at 1 uM after 48 hrs by sulforhodamine B assay
[56] = system: CCRF-CEM; experiment: Growth inhibition of human CCRF-CEM cells at 1 uM after 48 hrs by sulforhodamine B assay
[57] = system: U-251; experiment: Growth inhibition of human U251 cells at 1 uM after 48 hrs by sulforhodamine B assay
[58] = system: SF-295; experiment: Growth inhibition of human SF295 cells at 1 uM after 48 hrs by sulforhodamine B assay

Measured: growth inhibition (GI)

Nc1ncnc2c1N=C1c3ccccc3CCC1C(c1ccccc1)N2 (stereo not drawn)
active: [1] | [2] | [3] | [4] | [5] | [6] | [7] | [8] | [9] | [10] | [11] | [12] | [13] | [14] | [15] | [16] | [17] | [18] | [19] | [20] | [21] | [22] | [23] | [24] | [25] | [26] | [27] | [28] | [29] | [30] | [31] | [32] | [33] | [34] | [35] | [36] | [37] | [38] | [39] | [40] | [41] | [42] | [43] | [44] | [45] | [46] | [47] | [48] | [49] | [50] | [51] | [52] | [53] | [54] | [55] | [56] | [57] | [58]
